Source: US7649012B2, “Compounds, pharmaceutical compositions containing same, and methods of use for same” (FASgen, Inc., priority 2002, dated 2010)
In brackets after ≈: the same amount, converted by molar mass. Where two headings read alike, the source gives them in different places.

How the values were obtained:
Assay type in all cases: cell-based
[1] = test system: MCF-7 human breast cancer cells; assay: XTT cytotoxicity assay; details: MCF7, MCF-7, 72 hours, some cells marked (M)
Experimental: The XTT assay is a non-radioactive alternative for the [^51 Cr] release cytotoxicity assay. XTT is a tetrazolium salt that is reduced to a formazan dye only by metabolically active, viable cells. The reduction of XTT is measured spectrophotometrically as OD490-OD650.
To measure the cytotoxicity of specific compounds against cancer cells, 9×10^3 MCF-7 human breast cancer cells, obtained from the American Type Culture Collection are plated per well in 96 well plates in DMEM medium with 10% fetal bovine serum, insulin, penicillin, and streptomycin. Following overnight culture at 37° C. and 5% CO2, the compounds to be tested, dissolved in DMSO, are added to the wells in 1 μl volume at the following concentrations: 80, 40, 20, 10, 5, 2.5, 1.25, and 0.625 μg/ml in triplicate. Additional concentrations are tested if required. 1 μl of DMSO is added to triplicate wells are the vehicle control. C75 is run at 40, 20, […], and 5 μg/ml in triplicate as positive controls. After 72 hours of incubation, cells are incubated for 4 hours with the XTT reagent as per manufacturer's instructions (Cell Proliferation Kit II (XTT) Roche). Plates are read at OD490 and OD650 on a Molecular Devices SpectraMax Plus Spectrophotometer. Three wells containing the XTT reagent without cells serve as the plate blank. XTT data are reported as OD490-OD650-Averages and standard error of the mean are computed using SOFTmax Pro software (Molecular Dynamics).
The IC50 for the compounds is defined as the concentration of drug leading to a 50% reduction in OD490-OD650 compared to controls. The OD490-OD650 are computed by the SOFTmax PRO software (Molecular Devices) for each compound concentration. IC50 is calculated by linear regression, plotting the FAS activity as percent of control versus drug concentrations. Linear regression, best-fit line, r^2, and 95% confidence intervals are determined using Prism Version 3.0 (Graph Pad Software).

[2] = test system: OV; assay: XTT cytotoxicity assay, cells marked (OV)
[3] = test system: Enterococcus faecalis (ATCC # 29212); assay: Broth microdilution MIC; details: for MIC: Enterococcus faecalis, ATCC29212
Experimental: (§1) A broth microdilution assay is used to assess the antimicrobial activity of the compounds. […] Microorganisms tested include Staphylococcus aureus (ATCC # 29213), Enterococcus faecalis (ATCC # 29212), Pseudomonas aeruginosa (ATCC # 27853), and Escherichia coli (ATCC # 25922). The assay is performed in two growth media, Mueller Hinton Broth and Trypticase Soy Broth. […] Colonies are suspended in sterile broth so that the turbidity matches the turbidity of a 0.5 McFarland standard. The inoculum is diluted 1:10 in sterile broth (Mueller Hinton or Trypticase soy) and 195 ul is dispensed per well of a 96-well plate. The compounds to be tested, dissolved in DMSO, are added to the wells in 5 ul volume at the following concentrations: 25, 12.5, 6.25, 3.125, 1.56 and 0.78 ug/ml in duplicate. Additional concentrations are tested if required. 5 ul of DMSO added to duplicate wells are the vehicle control. Serial dilutions of positive control compounds, vancomycin (E. faecalis and S. aureus) and tobramycin (E. coli and P. aeruginosa), are included in each run. After 24 hours of incubation at 37° C., plates are read at OD600 on a Molecular Devices SpectraMax Plus Spectrophotometer. Average OD600 values are computed using SOFTmax Pro Software (Molecular Devices) and MIC values are determined by linear regression analysis using Prism version 3.02 (Graph Pad Software, San Diego).

[4] = test system: Escherichia coli (ATCC # 25922); assay: Broth microdilution MIC; details: for MIC: Escherichia coli, ATCC25922, read-out: Ecoli/Tsoy(MIC); for MIC / Ecoli/Tsoy(MIC): Trypticase Soy Broth; for Ecoli/MH(MIC): Mueller Hinton Broth
Experimental: as §1

[5] = test system: Pseudomonas aeruginosa (ATCC # 27853); assay: Broth microdilution MIC; details: for PSAE/MH(MIC): Mueller Hinton Broth; for PSAE/Tsoy(MIC): Trypticase Soy Broth
Experimental: as §1

[6] = test system: Staphylococcus aureus (ATCC # 29213); assay: Broth microdilution MIC; details: for MIC: Staphylococcus aureus, ATCC29213
Experimental: as §1

[7] = Mueller Hinton Broth, read-out: EF/MH(MIC)
[8] = Trypticase Soy Broth, read-out: EF/Tsoy(MIC)
[9] = Mueller Hinton Broth, read-out: SA/MH(MIC)
[10] = Trypticase Soy Broth, read-out: SA/Tsoy(MIC)

Structure (SMILES) | MIC [3, 7] | MIC [3, 8] | Ecoli/MH(MIC) [4] | PSAE/MH(MIC) [5] | PSAE/Tsoy(MIC) [5] | MIC [6, 9] | MIC [6, 10] | EF/Tsoy(MIC) ([3]; Trypticase Soy Broth) | Ecoli/Tsoy(MIC) [4] | IC50 [1] | IC50 [2] | MIC [4] | SA/MH(MIC) ([6]; Mueller Hinton Broth)
CCCCCCCCC1(C)SC(=O)C=C1OCC(=O)NNC(=O)c1ccco1 (centres unmarked) |  |  |  |  |  |  |  |  |  | 26.4 µg/mL (≈ 64.6 µM) | 21.3 µg/mL (≈ 52.1 µM) |  | 
CCCCCCCCC1(C)SC(=O)C=C1OCc1ccccc1 (centres unmarked) |  |  |  |  |  |  |  |  |  | 29.2 µg/mL (≈ 87.8 µM) | 27.8 µg/mL (≈ 83.6 µM) |  | 
CCCCCCCCC1(C)SC(=O)C=C1OCC(=O)NNC(C)=O (centres unmarked) |  |  |  |  |  |  |  |  |  | 25.3 µg/mL (≈ 71 µM) | 16 µg/mL (≈ 44.9 µM) |  | 
CCCCCCCCC1(C)SC(=O)C=C1O (centres unmarked) | 16.9 µg/mL (≈ 69.7 µM) | 3.3 µg/mL (≈ 13.6 µM) | Neg | Neg | Neg |  | 47 µg/mL (≈ 194 µM) |  |  | 17.6 ± 0.1 µg/mL (≈ 72.6 µM) |  | 278 µg/mL (≈ 1150 µM) | Neg
CCCCCCC1(C)SC(=O)C=C1O (centres unmarked) | 98 µg/mL (≈ 457 µM) | 43 µg/mL (≈ 201 µM) | Neg | Neg | Neg | 48 µg/mL (≈ 224 µM) | 31 µg/mL (≈ 145 µM) |  | Neg | > 80 µg/mL |  |  | 
CCCCCCCCC1(C)SC(=O)C(C)=C1O (centres unmarked) | 44 µg/mL (≈ 172 µM) | 105 µg/mL (≈ 409 µM) | Neg | Neg | Neg | 45 ± 2 µg/mL (≈ 175 µM) | 23.5 ± 0.4 µg/mL (≈ 91.6 µM) |  |  | 48 ± 1.4 µg/mL (≈ 187 µM) |  | 290 µg/mL (≈ 1130 µM) | 
CCCCCCCCC1(C)SC(=O)C=C1OCC(=O)NNCc1ccc(Cl)cc1 (centres unmarked) |  |  |  |  |  |  |  |  |  | 6.7 µg/mL (≈ 15.3 µM) | 16 µg/mL (≈ 36.4 µM) |  | 

Second part, led by results:

MIC [3, 7] | MIC [3, 8] | Ecoli/MH(MIC) [4] | PSAE/MH(MIC) [5] | PSAE/Tsoy(MIC) [5] | MIC [6, 9] | MIC [6, 10] | EF/Tsoy(MIC) ([3]; Trypticase Soy Broth) | Ecoli/Tsoy(MIC) [4] | Structure (SMILES) | IC50 [1] | IC50 [2] | MIC [4] | SA/MH(MIC) ([6]; Mueller Hinton Broth)
121 µg/mL (≈ 367 µM) | 173 µg/mL (≈ 525 µM) | Neg | Neg | Neg | 78 µg/mL (≈ 237 µM) | 225 µg/mL (≈ 683 µM) |  |  | CCCCCC[C@@]1(C)SC(=O)C=C1OCC(=O)NCC(=O)O (racemic) | > 80 µg/mL |  | 235 µg/mL (≈ 713 µM) | 
72 µg/mL (≈ 281 µM) |  | Neg | Neg | Neg | 252 µg/mL (≈ 983 µM) | 67 µg/mL (≈ 261 µM) | Neg | Neg | CCCCCCCCC1(C)SC(=O)C=C1OC (centres unmarked) | 16.4 ± 2.3 µg/mL (≈ 64 µM) |  |  | 
170 µg/mL (≈ 726 µM) | 189 µg/mL (≈ 807 µM) | Neg | Neg | Neg | 83 µg/mL (≈ 354 µM) | 129 µg/mL (≈ 551 µM) |  | Neg | COC1=CC(=O)SC1(C)Cc1ccccc1 (centres unmarked) | 61.3 ± 3.9 µg/mL (≈ 262 µM) |  |  | 
128 µg/mL (≈ 581 µM) |  | Neg | Neg | Neg | 57 µg/mL (≈ 259 µM) | 67 µg/mL (≈ 304 µM) | Neg |  | CC1(Cc2ccccc2)SC(=O)C=C1O (centres unmarked) | > 80 µg/mL |  | 299 µg/mL (≈ 1360 µM) | 
64 µg/mL (≈ 192 µM) |  | Neg | Neg | Neg | 115 µg/mL (≈ 345 µM) | 134 µg/mL (≈ 402 µM) | Neg | Neg | CCCCCCCC[C@@]1(C)SC(=O)C=C1OCCCCCl (racemic) | 35.3 ± 2.2 µg/mL (≈ 106 µM) |  |  | 
117 µg/mL (≈ 384 µM) | 165 µg/mL (≈ 541 µM) | Neg | Neg | Neg | 164 µg/mL (≈ 538 µM) | 50 µg/mL (≈ 164 µM) |  | Neg | CCCCCC[C@@]1(C)SC(=O)C=C1OCCCCCl (racemic) | 20.8 ± 0.9 µg/mL (≈ 68.2 µM) |  |  | 
77 µg/mL (≈ 256 µM) | 164 µg/mL (≈ 546 µM) | Neg | Neg | Neg | 98 µg/mL (≈ 326 µM) | 60 µg/mL (≈ 200 µM) |  | Neg | CCCCCCCC[C@@]1(C)SC(=O)C=C1OCC(=O)O | 50.3 ± 2.8 µg/mL (≈ 167 µM) |  |  | 
102 µg/mL (≈ 342 µM) | 147 µg/mL (≈ 493 µM) | Neg | Neg | Neg | 88 µg/mL (≈ 295 µM) | 62 µg/mL (≈ 208 µM) |  | Neg | CCCCCCCC[C@@]1(C)SC(=O)C=C1OC(=O)CC (racemic) | 26.8 ± 0.6 µg/mL (≈ 89.8 µM) |  |  | 
